The values below come from patent US20240115667A1 (priority 2020, published 2024).

Read-outs that look alike come from different tables or passages of the source.

In data set [1] the test system is SARS-CoV-2. Type of data set: cell-based.
Data set [2] has as its system SARS-CoV-2. Type of data set: cell-based. As to conditions: diphenhydramine 40 μg/ml, lactoferrin 400 μg/ml; MOI 0.01; 48 h supernatant.
Data set [3] deals with SARS-CoV-2.
Data set [4] has as its system SARS-CoV-2. The following applies: for EC50, inhibition of SARS-CoV-2 induced cytotoxicity: Vero E6, MOI 0.2, LDH release. On the technique in general: Release of lactate dehydrogenase indicates damage to the cell membrane.
For data set [5], the system named is SARS-CoV-2. Put plainly: microbe, parasite or virus in culture. The following applies: Severe acute respiratory syndrome coronavirus 2, Vero C1008, read-out: EC50, inhibition of SARS-CoV-2 induced cytotoxicity, diphenhydramine with 400 μg/ml of lactoferrin.

As for `CN(C)CCOC(c1ccccc1)c1ccccc1` [Diphenhydramine], in the data set on SARS-CoV-2 [1], the “Reduction in N-protein RNA” value is reported as 32.2%. For the same compound, the “Reduction of infectious SARS-CoV-2 particle release compared to untreated H23-hACE2 cells” value in the data set with SARS-CoV-2 [2] was −1 log. Besides, the “Inhibition of SARS-CoV-2 infection in vitro” value in the data set on SARS-CoV-2 [3] is given as “inhibited SARS-CoV-2 infection when administered alone”. Moreover, in the data set on SARS-CoV-2 [3], the “Reduction of the diphenhydramine EC50 by presence of LFN” value is recorded as 3 times. In addition, the “Decrease of SARS-CoV-2 induced cytotoxicity” value with SARS-CoV-2 [3] (5 μg/mL DPH alone) was “unable to decrease SARS-CoV-2 induced cytotoxicity”. The “Decrease of diphenhydramine EC50” value in the data set on SARS-CoV-2 [4] (co-administration of 400 μg/ml of lactoferrin) is on record as 55.5%. Besides, the “EC50, inhibition of SARS-CoV-2 induced cytotoxicity” value in the data set with SARS-CoV-2 [4] (diphenhydramine alone) stood at 122 µg/mL; with SARS-CoV-2 [4] (diphenhydramine with 400 μg/ml of lactoferrin), 54.25 µg/mL. Further, the EC50 in the data set with SARS-CoV-2 [5] (Vero E6, MOI 0.2) amounted to 186 µM; in the data set with SARS-CoV-2 [5] (Vero E6, MOI 0.2, LDH release) it was 54.2 µg/mL.
